In the supplement of paper PMC12463676, “Small-molecule dissolution of stress granules by redox modulation benefits ALS models” (Nature Chemical Biology, 2025):

Key:
potassium arsenate = compound: O=[As]([O-])(O)O.[K+] [potassium arsenate]; assay: thermal stability z-score vs DMSO; higher = more thermally stabilized by treatment; conditions: HeLa; arsenate concentration 1 mM
Procedure: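 Cellular thermal proteome profiling in HeLa cells treated with 1 mM arsenate for 1 h (DMSO pretreatment), heated to ten temperatures (37-66.3 °C). Soluble protein was quantified by TMT mass spectrometry relative to DMSO controls; the thermal stability score was transformed to a z-score; mean of n = 3 experiments.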

lipoamide = compound: NC(=O)CCCCC1CCSS1 [lipoamide]; assay: as above; conditions: HeLa, lipoamide concentration 100 µM
Procedure: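 Cellular thermal proteome profiling in HeLa cells. Cells were treated with 100 µM lipoamide for 1 h, with or without 1 mM arsenate for a further 1 h, then heated to ten temperatures (37-66.3 °C), and soluble protein was quantified by TMT mass spectrometry relative to 0.1% DMSO controls. The thermal stability score (sum of log2 fold changes minus the abundance score) was transformed to a z-score; mean of n = 3 experiments.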

[1] = arsenate co-treatment: 1 mM arsenate 1 h
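Also: each temperature applied for 3 min, abundance score taken as mean log2 fold change at the two lowest temperatures, z-score obtained by mean subtraction and division by SD.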

UniProt Q14571, sequence (Q14571 whole entry): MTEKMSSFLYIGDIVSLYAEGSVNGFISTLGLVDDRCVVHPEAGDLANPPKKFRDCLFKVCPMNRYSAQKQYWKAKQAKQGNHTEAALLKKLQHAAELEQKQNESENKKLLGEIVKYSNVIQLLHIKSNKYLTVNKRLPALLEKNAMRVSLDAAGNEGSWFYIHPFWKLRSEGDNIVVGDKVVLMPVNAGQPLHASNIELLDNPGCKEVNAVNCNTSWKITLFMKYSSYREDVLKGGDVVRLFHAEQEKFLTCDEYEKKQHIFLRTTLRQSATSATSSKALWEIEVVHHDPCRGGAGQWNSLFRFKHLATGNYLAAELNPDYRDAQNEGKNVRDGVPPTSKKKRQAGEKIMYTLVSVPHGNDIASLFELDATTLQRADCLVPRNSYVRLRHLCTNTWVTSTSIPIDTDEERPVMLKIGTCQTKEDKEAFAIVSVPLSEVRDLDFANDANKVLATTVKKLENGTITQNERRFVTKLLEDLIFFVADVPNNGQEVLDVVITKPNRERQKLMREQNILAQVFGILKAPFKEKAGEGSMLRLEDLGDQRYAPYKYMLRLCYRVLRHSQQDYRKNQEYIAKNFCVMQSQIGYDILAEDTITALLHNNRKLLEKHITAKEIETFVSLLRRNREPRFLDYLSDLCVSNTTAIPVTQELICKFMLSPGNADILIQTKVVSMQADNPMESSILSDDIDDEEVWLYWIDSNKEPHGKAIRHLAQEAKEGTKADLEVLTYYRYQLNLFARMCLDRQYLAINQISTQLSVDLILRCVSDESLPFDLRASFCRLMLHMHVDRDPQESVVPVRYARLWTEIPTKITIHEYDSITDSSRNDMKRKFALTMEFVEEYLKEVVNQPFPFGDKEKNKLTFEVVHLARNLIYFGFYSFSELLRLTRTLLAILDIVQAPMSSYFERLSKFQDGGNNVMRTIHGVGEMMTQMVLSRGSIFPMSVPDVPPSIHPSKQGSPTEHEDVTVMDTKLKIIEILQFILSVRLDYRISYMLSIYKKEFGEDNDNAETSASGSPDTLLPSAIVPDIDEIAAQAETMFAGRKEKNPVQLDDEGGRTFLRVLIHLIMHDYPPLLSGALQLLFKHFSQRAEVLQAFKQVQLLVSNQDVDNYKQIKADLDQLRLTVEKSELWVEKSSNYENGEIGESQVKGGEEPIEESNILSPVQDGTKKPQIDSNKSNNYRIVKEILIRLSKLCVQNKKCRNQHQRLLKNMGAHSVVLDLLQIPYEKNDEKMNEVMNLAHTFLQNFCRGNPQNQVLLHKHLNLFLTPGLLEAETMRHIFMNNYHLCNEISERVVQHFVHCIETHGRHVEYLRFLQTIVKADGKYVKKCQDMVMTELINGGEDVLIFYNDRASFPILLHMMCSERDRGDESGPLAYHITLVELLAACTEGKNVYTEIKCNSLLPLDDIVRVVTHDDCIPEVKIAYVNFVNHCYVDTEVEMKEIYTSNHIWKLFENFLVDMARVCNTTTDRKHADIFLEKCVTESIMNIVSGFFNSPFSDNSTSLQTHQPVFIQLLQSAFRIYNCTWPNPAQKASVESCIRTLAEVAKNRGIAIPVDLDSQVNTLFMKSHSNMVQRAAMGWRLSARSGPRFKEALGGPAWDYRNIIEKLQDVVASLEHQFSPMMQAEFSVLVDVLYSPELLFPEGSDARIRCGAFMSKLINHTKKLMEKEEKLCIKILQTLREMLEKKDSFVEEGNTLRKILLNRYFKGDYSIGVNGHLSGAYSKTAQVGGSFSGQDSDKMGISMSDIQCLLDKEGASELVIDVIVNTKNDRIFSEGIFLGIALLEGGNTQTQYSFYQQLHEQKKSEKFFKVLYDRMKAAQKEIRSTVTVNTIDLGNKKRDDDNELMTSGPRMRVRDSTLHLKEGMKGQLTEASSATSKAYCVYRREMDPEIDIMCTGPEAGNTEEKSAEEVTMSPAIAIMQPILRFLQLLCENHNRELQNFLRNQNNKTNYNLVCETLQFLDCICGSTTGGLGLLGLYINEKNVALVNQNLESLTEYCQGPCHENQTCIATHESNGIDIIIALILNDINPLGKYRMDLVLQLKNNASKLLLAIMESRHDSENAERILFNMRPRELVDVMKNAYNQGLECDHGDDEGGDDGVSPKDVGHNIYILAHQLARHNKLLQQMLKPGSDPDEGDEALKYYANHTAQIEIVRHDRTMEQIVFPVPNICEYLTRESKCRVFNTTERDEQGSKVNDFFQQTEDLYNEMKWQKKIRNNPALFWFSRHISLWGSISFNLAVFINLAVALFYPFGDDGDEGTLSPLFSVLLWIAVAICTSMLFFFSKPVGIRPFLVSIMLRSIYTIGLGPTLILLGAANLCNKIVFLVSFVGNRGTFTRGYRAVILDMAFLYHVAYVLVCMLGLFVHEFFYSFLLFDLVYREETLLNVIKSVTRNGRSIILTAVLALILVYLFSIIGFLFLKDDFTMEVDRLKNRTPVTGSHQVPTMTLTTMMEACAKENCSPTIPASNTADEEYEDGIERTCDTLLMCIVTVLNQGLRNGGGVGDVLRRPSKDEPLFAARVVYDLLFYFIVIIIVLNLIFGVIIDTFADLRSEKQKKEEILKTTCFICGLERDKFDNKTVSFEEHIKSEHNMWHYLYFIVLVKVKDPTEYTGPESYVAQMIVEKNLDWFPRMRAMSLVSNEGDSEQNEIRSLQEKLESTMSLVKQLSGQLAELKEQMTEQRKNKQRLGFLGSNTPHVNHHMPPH
UniProt Q7Z5L9, sequence (Q7Z5L9 whole entry): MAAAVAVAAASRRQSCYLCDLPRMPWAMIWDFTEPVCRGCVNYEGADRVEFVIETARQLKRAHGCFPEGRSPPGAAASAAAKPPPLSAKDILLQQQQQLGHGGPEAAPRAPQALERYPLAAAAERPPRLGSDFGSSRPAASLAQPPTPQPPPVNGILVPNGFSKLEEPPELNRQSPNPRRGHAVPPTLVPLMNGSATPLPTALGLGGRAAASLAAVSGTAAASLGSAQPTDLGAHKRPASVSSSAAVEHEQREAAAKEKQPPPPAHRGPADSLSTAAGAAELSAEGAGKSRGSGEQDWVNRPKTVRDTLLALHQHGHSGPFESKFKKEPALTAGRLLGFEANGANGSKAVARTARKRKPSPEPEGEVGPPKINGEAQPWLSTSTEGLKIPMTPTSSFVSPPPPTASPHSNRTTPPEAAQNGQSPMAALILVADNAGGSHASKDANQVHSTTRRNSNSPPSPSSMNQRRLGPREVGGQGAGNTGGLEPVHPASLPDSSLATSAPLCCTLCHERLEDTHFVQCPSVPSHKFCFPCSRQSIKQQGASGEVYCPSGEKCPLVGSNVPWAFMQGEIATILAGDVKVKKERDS
UniProt Q8IU81, sequence (Q8IU81 whole entry): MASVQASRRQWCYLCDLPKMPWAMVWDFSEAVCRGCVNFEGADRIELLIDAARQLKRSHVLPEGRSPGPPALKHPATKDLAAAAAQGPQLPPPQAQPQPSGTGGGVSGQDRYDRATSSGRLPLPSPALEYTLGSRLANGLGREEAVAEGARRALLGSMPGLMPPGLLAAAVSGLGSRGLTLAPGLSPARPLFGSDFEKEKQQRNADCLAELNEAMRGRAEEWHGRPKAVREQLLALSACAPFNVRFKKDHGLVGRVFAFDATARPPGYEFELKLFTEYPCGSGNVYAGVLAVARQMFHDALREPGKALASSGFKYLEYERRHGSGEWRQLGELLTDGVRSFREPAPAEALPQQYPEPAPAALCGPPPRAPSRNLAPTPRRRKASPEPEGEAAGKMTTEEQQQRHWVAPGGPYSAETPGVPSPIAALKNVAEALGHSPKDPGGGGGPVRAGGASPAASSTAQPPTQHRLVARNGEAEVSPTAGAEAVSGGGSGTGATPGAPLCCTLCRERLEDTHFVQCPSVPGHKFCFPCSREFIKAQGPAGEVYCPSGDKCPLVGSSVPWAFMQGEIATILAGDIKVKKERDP
UniProt Q13572, sequence (Q13572 whole entry): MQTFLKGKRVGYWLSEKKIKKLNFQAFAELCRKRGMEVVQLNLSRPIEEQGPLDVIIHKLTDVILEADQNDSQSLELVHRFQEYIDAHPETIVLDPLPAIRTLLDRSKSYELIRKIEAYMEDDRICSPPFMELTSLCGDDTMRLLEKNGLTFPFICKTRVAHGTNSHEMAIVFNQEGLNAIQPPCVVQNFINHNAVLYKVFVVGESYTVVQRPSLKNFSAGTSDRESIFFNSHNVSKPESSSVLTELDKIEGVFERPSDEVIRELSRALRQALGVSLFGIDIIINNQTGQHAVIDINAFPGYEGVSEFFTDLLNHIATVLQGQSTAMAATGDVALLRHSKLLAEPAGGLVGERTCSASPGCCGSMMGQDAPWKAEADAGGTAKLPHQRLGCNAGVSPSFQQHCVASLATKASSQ
UniProt P05556, sequence (P05556 whole entry): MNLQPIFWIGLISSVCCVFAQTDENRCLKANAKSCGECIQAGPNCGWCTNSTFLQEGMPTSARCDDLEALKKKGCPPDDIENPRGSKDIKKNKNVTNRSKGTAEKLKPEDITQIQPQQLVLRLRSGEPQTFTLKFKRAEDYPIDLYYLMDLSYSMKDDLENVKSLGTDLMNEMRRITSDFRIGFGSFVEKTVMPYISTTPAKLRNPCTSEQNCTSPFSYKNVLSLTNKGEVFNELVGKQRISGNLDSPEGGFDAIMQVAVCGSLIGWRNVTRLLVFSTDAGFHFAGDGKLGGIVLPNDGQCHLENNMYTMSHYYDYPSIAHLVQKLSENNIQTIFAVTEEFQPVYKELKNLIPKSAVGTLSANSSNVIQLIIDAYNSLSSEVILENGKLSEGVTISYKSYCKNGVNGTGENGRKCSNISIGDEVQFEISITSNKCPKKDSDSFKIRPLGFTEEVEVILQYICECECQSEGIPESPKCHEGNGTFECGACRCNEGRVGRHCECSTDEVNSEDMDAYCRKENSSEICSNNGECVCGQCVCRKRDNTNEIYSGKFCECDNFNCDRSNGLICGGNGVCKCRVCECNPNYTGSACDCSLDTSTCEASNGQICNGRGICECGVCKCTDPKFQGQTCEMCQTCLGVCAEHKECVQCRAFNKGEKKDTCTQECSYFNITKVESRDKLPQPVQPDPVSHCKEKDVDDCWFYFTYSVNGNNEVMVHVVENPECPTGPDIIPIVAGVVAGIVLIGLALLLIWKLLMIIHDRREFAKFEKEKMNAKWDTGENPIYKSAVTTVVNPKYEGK

| Target | thermal stability z-score (potassium arsenate) | thermal stability z-score (lipoamide; [1]) | thermal stability z-score (lipoamide; arsenate co-treatment: none) |
| --- | --- | --- | --- |
| IQGAP2 (UniProt Q13576) | -0.209 | -0.121 | -0.159 |
| IQGAP3 (UniProt Q86VI3) | -0.171 | -0.157 | -0.0447 |
| IQSEC1 (UniProt Q6DN90) | 0.159 | 0.165 | 0.212 |
| IRAK1 (UniProt P51617) | -0.328 | -0.153 | -0.074 |
| IRAK4 (UniProt Q9NWZ3) | -0.11 | -0.11 | -0.0699 |
| IREB2 (UniProt P48200) | -0.386 | -0.0142 | 0.0771 |
| IRF2BP1 (UniProt Q8IU81) | -0.228 | -0.196 | -0.13 |
| IRF2BP2 (UniProt Q7Z5L9) | -2.51 | 0.371 | -0.0192 |
| IRF2BPL (UniProt Q9H1B7) | -0.124 | 0.0789 | 0.157 |
| IRF3 (UniProt Q14653) | 1.13 | 0.883 | -0.106 |
| IRGQ (UniProt Q8WZA9) | -0.24 | -0.249 | -0.257 |
| IRS2 (UniProt Q9Y4H2) | -1.42 | -0.525 | -0.112 |
| ISCA1 (UniProt Q9BUE6) | 0.178 | -0.00815 | 0.577 |
| ISCU (UniProt Q9H1K1) | -1.15 | 0.628 | 0.0375 |
| ISG15 (UniProt P05161) | 0.355 | 0.471 | 0.327 |
| ISG20 (UniProt Q96AZ6) | 0.863 | 0.189 | 0.668 |
| ISG20L2 (UniProt Q9H9L3) | -0.367 | -0.0445 | -0.0231 |
| ISOC1 (UniProt Q96CN7) | 8.79 | 1.2 | 1.14 |

| Target | thermal stability z-score (potassium arsenate) | thermal stability z-score (lipoamide; [1]) | thermal stability z-score (lipoamide; arsenate co-treatment: none) |
| --- | --- | --- | --- |
| IST1 (UniProt P53990) | 0.351 | 0.453 | 0.367 |
| ISY1 (UniProt Q9ULR0) | -0.872 | 0.997 | 0.693 |
| ITCH (UniProt Q96J02) | -0.386 | -0.451 | -0.173 |
| ITFG1 (UniProt Q8TB96) | 0.61 | -0.794 | -0.597 |
| ITFG2 (UniProt Q969R8) | -0.266 | 1.01 | 0.534 |
| ITGA1 (UniProt P56199) | -0.126 | 0.216 | 0.171 |
| ITGA2 (UniProt P17301) | 0.278 | 0.217 | 0.235 |
| ITGA3 (UniProt P26006) | 0.402 | 0.122 | 0.207 |
| ITGA5 (UniProt P08648) | 0.211 | 0.408 | 0.203 |
| ITGA6 (UniProt P23229) | 0.156 | -0.0761 | 0.174 |
| ITGAV (UniProt P06756) | -0.323 | -0.283 | -0.316 |
| ITGB1 (UniProt P05556) | 0.139 | -0.614 | -0.431 |
| ITGB5 (UniProt P18084) | 0.289 | -1.1 | -0.661 |
| ITM2B (UniProt Q9Y287) | -0.251 | 0.215 | -0.0896 |
| ITPA (UniProt Q9BY32) | 0.199 | 0.939 | 0.734 |
| ITPK1 (UniProt Q13572) | -0.31 | -0.0201 | 0.179 |
| ITPR1 (UniProt Q14643) | -0.46 | -0.434 | -0.461 |
| ITPR2 (UniProt Q14571) | -0.238 | -0.269 | -0.265 |
